Data reported in PMC7069976, “Improved secretion of glycoproteins using an N-glycan-restricted passport sequence tag recognized by cargo receptor” (Nature Communications, 2020).

Tests used:
Type in all cases: cell-based
HCT116 cells = assay: RUSH imaging of ER-to-Golgi transport; conditions: for colocalized fraction with GM130 (Manders' M1), average: mScarlet-I fusion
Procedure: For live-cell imaging using RUSH system, li-Str_ST-SBP-mCherry (Plasmid #65269) was purchased from Addgene. We replaced mCherry with mScarlet-I-EPO or mScarlet-I-EPO-motif (SbfI/XbaI). HCT116 cells were plated on 35-mm glass-based dishes, which were coated with poly-L-lysine, and grown overnight. RUSH plasmids to express mScarlet-I-EPO and mScarlet-I-EPO-motif were individually transfected into the cells using Expifectamine^TM 293 reagent. After 24 h, the medium was changed into DMEM including 40 μM (+)-biotin for starting the translocation form ER. […] After blocking with Blocking One solution (Nacalai Tesque), the cells were incubated with polyclonal rabbit anti-GM130 (Proteintech, 11308-1-AP, dilution 1 :1000) and then with Alexa Fluor 488-conjugated anti-rabbit IgG antibody [Jackson ImmunoResearch (West Grove, PA), 711-545-152, dilution 1:1000] in 20 mM Tris-HCl (pH 7.6) containing 150 mM NaCl and 0.05% Tween-20. Cell images were recorded using a fluorescence microscope BZ-X700 and BZ-H3XF/Sectioning Module (Keyence Co., Osaka, Japan) and analyzed by Fiji[31]. For quantification of co-localization of EPO proteins and GM130, the images were thresholded by the Otsu method and analyzed by calculating Manders’ coefficient (M1) with Coloc2 plugin[32]. Because of abnormal distribution of the imaging data based on Shapiro–Wilk normality test, nonparametric statistics were used for the analysis. All statistical analysis was performed in the R statistical environment version 3.5.3[33].

ΔERGIC-53 HCT116 cells = assay: EPO secretion level (ELISA) from ERGIC-53 KO HCT116 cells
Text: The guide RNAs (gRNAs) flanking the target enhancer regions for ERGIC-53 and MCFD2 were designed using ToolGen’s dRGEN synthesis service (Seoul, South Korea). The target DNA sequences of the gRNAs used in the present study were as follows: for MCFD2 deletion, […], and for ERGIC-53 deletion, […]. The gRNA expression plasmids (pRGEN-U6-sgRNA) were purchased from ToolGen. To generate the KO cells of MCFD2 or ERGIC-53, individual gRNA plasmids and a plasmid-expressing Cas9-green fluorescent protein (GFP) (Addgene, catalog #44719) were transiently transfected into HCT116 cells, which are diploid cells suitable for genome editing using the CRISPR/Cas9 method, in a six-well plate using polyethylenimine “Max” (Polysciences Inc., Warrington, PA) and a Cas9:gRNA molar ratio of 1:5 as described previously. At 48 h post transfection, cells with high GFP expression were identified using fluorescence-activated cell sorting with the BD FACSAria II cell sorter (BD Biosciences, San Jose, CA). For knocking out ERGL in the wild-type and ERGIC-53-KO cells, the Guide-it CRISPR/Cas9 System (green/red) (Takara Bio Inc., Kusatsu, Japan) was used for the cloning and expression of target single gRNAs, whose target ERGL DNA sequences were […] and […]. The two constructed pGuide-it Vectors (green and red) were transiently transfected into HCT116 cells. At 48 h post transfection, cells with high ZsGreen1 and tdTomato expression were identified using fluorescence-activated cell sorting. Sorted cells were plated into individual wells of a 96-well plate and then re-plated as single cells in 6 cm dishes. The deletions in the clones were confirmed by polymerase chain reaction and sequencing analysis (Supplementary Figs. 8, 9, 10, and 11).
For expression of the FVIII and FV full-length and deletion mutant proteins in mammalian cells, the codon-optimized FVIII and FV genes were inserted into the p3XFLAG-CMV-14 Expression Vector and p3XFLAG-CMV-9 Expression Vector, respectively (Sigma-Aldrich, St. Louis, MO). For the expression of the wild-type and mutated AAT, EPO, and sFγRIIIa in mammalian cells, the corresponding genes (purchased from FASMAC Co., Ltd., Atsuki, Japan) were inserted into the p3XFLAG-CMV-9 Expression Vector (Sigma-Aldrich). […]
(§1) The secreted levels of FVIII and FV antigens in the culture medium were determined with an sandwich enzyme-linked immunosorbent assay (ELISA) method using the VisuLize FVIII Antigen Kit (Affinity Biologicals Inc., Ancaster, ON) and the Asssay Max™ Human Factor V ELISA Kit (ASSAYPRO, MO), respectively. The secreted levels of AAT and EPO antigens in the culture medium were determined with an ELASA method using the anti-AAT antibody (Agilent, Santa Clara, CA) and anti-Flag M2 antibody (Sigma-Aldrich), respectively.

HCT116 cells (WT) = assay: EPO secretion level (ELISA) from wild-type HCT116 cells; conditions: for EPO secretion level (Figure 4F): HCT116, alanine substitutions in motif
Text: For expression of the FVIII and FV full-length and deletion mutant proteins in mammalian cells, the codon-optimized FVIII and FV genes were inserted into the p3XFLAG-CMV-14 Expression Vector and p3XFLAG-CMV-9 Expression Vector, respectively (Sigma-Aldrich, St. Louis, MO). For the expression of the wild-type and mutated AAT, EPO, and sFγRIIIa in mammalian cells, the corresponding genes (purchased from FASMAC Co., Ltd., Atsuki, Japan) were inserted into the p3XFLAG-CMV-9 Expression Vector (Sigma-Aldrich).
HCT116 and its mutated cells as well as HEK293T were maintained in Dulbecco’s modified Eagle’s medium (DMEM) supplemented with 10% fetal bovine serum in 5% CO2 at 37 °C. For complementary DNA (cDNA) transfection, cells were grown overnight and transfected using Polyethylenimine “Max” (Polysciences Inc.) as described previously. Expi293F cells (Thermo Fisher Scientific, Waltham, MA) were maintained in Expi293 Expression Medium (Thermo Fisher Scientific) in 5% CO2 at 37 °C on an orbital shaker platform rotating at 125 r.p.m. For cDNA transfection, cells were transfected with the ExpiFectamine 293 Transfection Kit (Thermo Fisher Scientific Inc.). Protein expression was performed in serum-free medium.
as §1

In the case of “EPO: recombinant Flag-tagged erythropoietin without motif (Fig. 5 prints EPO for mScarlet-I-EPO)”, the “colocalized fraction with GM130 (Manders' M1)” value (HCT116 cells; 0 min, Figure No. 1) is reported as 0.028, the “colocalized fraction with GM130 (Manders' M1)” value (HCT116 cells; 0 min, Figure No. 2) is reported as 0.024 and the “colocalized fraction with GM130 (Manders' M1)” value (HCT116 cells; 0 min, Figure No. 3) is reported as 0.051. For the same substance, the “colocalized fraction with GM130 (Manders' M1)” value (HCT116 cells; 0 min, Figure No. 4) was 0.098, the “colocalized fraction with GM130 (Manders' M1)” value (HCT116 cells; 0 min, Figure No. 5) was 0.14 and the “colocalized fraction with GM130 (Manders' M1)” value (HCT116 cells; 0 min, Figure No. 6) was 0.098. The “colocalized fraction with GM130 (Manders' M1)” value (HCT116 cells; 0 min, Figure No. 7) was 0.128, the “colocalized fraction with GM130 (Manders' M1)” value (HCT116 cells; 0 min, Figure No. 8) was 0.018 and the “colocalized fraction with GM130 (Manders' M1)” value (HCT116 cells; 0 min, Figure No. 9) was 0.026. The “colocalized fraction with GM130 (Manders' M1), average” value (HCT116 cells; 0 min after biotin (40 μM), n = 9 cells) was 0.06789, the “colocalized fraction with GM130 (Manders' M1)” value (HCT116 cells; 30 min, Figure No. 1) was 0.115 and the “colocalized fraction with GM130 (Manders' M1)” value (HCT116 cells; 30 min, Figure No. 2) was 0.302. For the same substance, the “colocalized fraction with GM130 (Manders' M1)” value (HCT116 cells; 30 min, Figure No. 3) was 0.628, the “colocalized fraction with GM130 (Manders' M1)” value (HCT116 cells; 30 min, Figure No. 4) was 0.57 and the “colocalized fraction with GM130 (Manders' M1)” value (HCT116 cells; 30 min, Figure No. 5) was 0.472. The “colocalized fraction with GM130 (Manders' M1)” value (HCT116 cells; 30 min, Figure No. 6) was 0.508, the “colocalized fraction with GM130 (Manders' M1)” value (HCT116 cells; 30 min, Figure No. 7) was 0.39 and the “colocalized fraction with GM130 (Manders' M1)” value (HCT116 cells; 30 min, Figure No. 8) was 0.267. For the same substance, the “colocalized fraction with GM130 (Manders' M1)” value (HCT116 cells; 30 min, Figure No. 9) was 0.53, the “colocalized fraction with GM130 (Manders' M1)” value (HCT116 cells; 30 min, Figure No. 10) was 0.285 and the “colocalized fraction with GM130 (Manders' M1), average” value (HCT116 cells; 30 min after biotin (40 μM), n = 10 (EPO) or 13 (EPO-motif) cells) was 0.4067. For the same substance, the “ER-to-Golgi trafficking” value (HCT116 cells; 30 min after biotin addition) was “localized in the Golgi to varying extents depending on the C-terminal motif”, the “localization in RUSH imaging” value (HCT116 cells; before addition of biotin (time 0)) was “typical ER localization” and the “EPO secretion level (Figure 4D), average” value (ΔERGIC-53 HCT116 cells; average, n = 3, EPO in wild type = 1) was 1.297. For the same substance, the “EPO secretion level (Figure 4D)” value (ΔERGIC-53 HCT116 cells; replicate 1) was 1.122, the “EPO secretion level (Figure 4D)” value (ΔERGIC-53 HCT116 cells; replicate 2) was 1.395 and the “EPO secretion level (Figure 4D)” value (ΔERGIC-53 HCT116 cells; replicate 3) was 1.373. For the same substance, the “EPO secretion level (Figure 4E), average” value (HCT116 cells (WT); HCT116, N-glycan-deficient mutants, Average, EPO = 1) was 1, the “EPO secretion level (Figure 4E)” value (HCT116 cells (WT); HCT116, N-glycan-deficient mutants, replicate 1) was 1.0366 and the “EPO secretion level (Figure 4E)” value (HCT116 cells (WT); HCT116, N-glycan-deficient mutants, replicate 2) was 1.006. For the same substance, the “EPO secretion level (Figure 4E)” value (HCT116 cells (WT); HCT116, N-glycan-deficient mutants, replicate 3) was 0.9333, the “EPO secretion level (Figure 4E)” value (HCT116 cells (WT); HCT116, N-glycan-deficient mutants, replicate 4) was 1.024 and the “EPO secretion level (Figure 4F), average” value (HCT116 cells (WT); HCT116, alanine substitutions in C-terminal motif, Average, n = 3, EPO = 1) was 1. For the same substance, the “EPO secretion level (Figure 4F)” value (HCT116 cells (WT); replicate 1) was 1.027, the “EPO secretion level (Figure 4F)” value (HCT116 cells (WT); replicate 2) was 1.0473 and the “EPO secretion level (Figure 4F)” value (HCT116 cells (WT); replicate 3) was 0.9257. The “EPO secretion level (Figure 4C), average” value (HCT116 cells (WT); HCT116, motif position series, average, n = 3 independent transfections, Flag-EPO average = 1) was 1, the “EPO secretion level (Figure 4C)” value (HCT116 cells (WT); HCT116, motif position series, replicate 1) was 1.0819 and the “EPO secretion level (Figure 4C)” value (HCT116 cells (WT); HCT116, motif position series, replicate 2) was 0.9754. For the same substance, the “EPO secretion level (Figure 4C)” value (HCT116 cells (WT); HCT116, motif position series, replicate 3) was 0.9427, the “EPO secretion level (Figure 4D), average” value (HCT116 cells (WT); Wild type HCT116, KO series, average, n = 3, EPO in wild type = 1) was 1 and the “EPO secretion level (Figure 4D)” value (HCT116 cells (WT); Wild type HCT116, KO series, replicate 1) was 0.9075. The “EPO secretion level (Figure 4D)” value (HCT116 cells (WT); Wild type HCT116, KO series, replicate 2) was 1.011 and the “EPO secretion level (Figure 4D)” value (HCT116 cells (WT); Wild type HCT116, KO series, replicate 3) was 1.081.
